We go through 3 molecules from paper PMC2952696 (Bioorganic & medicinal chemistry letters, 2010).

What all share (assay type): biochemical
The target of one assay is human nNOS (Homo sapiens, UniProt P29475). The assay can be described thus: NOS inhibition assay, human nNOS. The settings on record: human nNOS vs rat nNOS.
For a further assay, the target named is bovine eNOS (Bos taurus, UniProt P29473). The assay can be described thus: NOS inhibition assay, bovine eNOS. Conditions: 2a vs 1.
For another assay, the target named is rat nNOS (Rattus norvegicus, UniProt P29476). In words: NOS inhibition assay, rat nNOS. The settings on record: for selectivity n/e: rat nNOS over bovine eNOS; for selectivity n/i: rat nNOS over murine iNOS.

Turning to `Nc1cccc(C[C@@H]2CNC[C@@H]2OCCNCCc2cccc(F)c2)n1` [Compound 2a], on human nNOS, the “drop of selectivity (Ki-human/Ki-rat) compared to 1” value is listed as 1.2 fold. In addition, the “difference in eNOS potency compared to 1” value at bovine eNOS stood at 3 fold. Also, the “drop of selectivity for rat nNOS over bovine eNOS compared to 1” value on rat nNOS (2a vs 1) was found to be 2.3 fold. Moreover, at rat nNOS (2a vs 1, removal of 4-methyl group), the “impaired potency for rat nNOS compared to 1” value is reported as 7 fold. For the same molecule, at rat nNOS, the selectivity n/e was 1,200 and the selectivity n/i is reported as 200.

As for `Nc1cccc(C[C@H]2CNC[C@H]2OCCNCCc2cccc(F)c2)n1` [Compound 2b], at rat nNOS (2b vs 2a), the “lower potency for rat nNOS compared to 2a” value came out at 4 fold. In addition, on rat nNOS, the selectivity n/e came out at 270 and the selectivity n/i is 60.

Take `N=C1CCCC(C[C@@H]2CNC[C@@H]2OCCNCCc2cccc(F)c2)N1` (stereo partly drawn) [Compound 3]: the “drop of selectivity (Ki-human/Ki-rat) compared to 1” value on human nNOS is given as 1.6 fold. At rat nNOS, this molecule came in with a selectivity n/e of 530 and a selectivity n/i of 200.
